Here are results for 14 compounds from ChEMBL document CHEMBL1909046, “DrugMatrix in vitro pharmacology data”.

A short description of data set [1]: DRUGMATRIX: ATPase, Na+/K+ enzyme inhibition (substrate: ATP). The format is tissue-based, Sus scrofa, Heart. To be noted: Not Active = under 50% inhibition at 10 µM.
The target in data set [2] is T1, Cholecystokinin receptor type A (Homo sapiens, UniProt P32238). Further: in other assays of this panel Not Active means under 50% inhibition at 10 µM.
T1 sequence (P32238 whole entry): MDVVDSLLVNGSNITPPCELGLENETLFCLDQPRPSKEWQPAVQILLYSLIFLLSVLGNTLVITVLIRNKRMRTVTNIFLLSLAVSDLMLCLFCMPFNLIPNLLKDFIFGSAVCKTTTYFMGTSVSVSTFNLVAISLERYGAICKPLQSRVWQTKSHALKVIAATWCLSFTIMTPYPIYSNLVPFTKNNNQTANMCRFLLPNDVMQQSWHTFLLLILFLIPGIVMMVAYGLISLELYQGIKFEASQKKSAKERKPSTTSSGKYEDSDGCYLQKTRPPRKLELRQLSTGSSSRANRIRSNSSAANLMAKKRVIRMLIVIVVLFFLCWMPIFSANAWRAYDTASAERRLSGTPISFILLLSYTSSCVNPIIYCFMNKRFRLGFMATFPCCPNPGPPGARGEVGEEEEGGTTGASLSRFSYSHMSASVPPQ
It counts as cell membranes, Membrane. To be noted: 1321-n1.

A further data set concerns the target Melanocortin receptor 3 (Homo sapiens, UniProt P41968). It counts as cell membranes, HEK293, Membrane. To be noted: hek293. Further: in other assays of this panel Not Active means under 50% inhibition at 10 µM.
Data set [3] has as its target T2, Amine oxidase [flavin-containing] A (Homo sapiens, UniProt P21397).
T2 sequence (P21397 whole entry): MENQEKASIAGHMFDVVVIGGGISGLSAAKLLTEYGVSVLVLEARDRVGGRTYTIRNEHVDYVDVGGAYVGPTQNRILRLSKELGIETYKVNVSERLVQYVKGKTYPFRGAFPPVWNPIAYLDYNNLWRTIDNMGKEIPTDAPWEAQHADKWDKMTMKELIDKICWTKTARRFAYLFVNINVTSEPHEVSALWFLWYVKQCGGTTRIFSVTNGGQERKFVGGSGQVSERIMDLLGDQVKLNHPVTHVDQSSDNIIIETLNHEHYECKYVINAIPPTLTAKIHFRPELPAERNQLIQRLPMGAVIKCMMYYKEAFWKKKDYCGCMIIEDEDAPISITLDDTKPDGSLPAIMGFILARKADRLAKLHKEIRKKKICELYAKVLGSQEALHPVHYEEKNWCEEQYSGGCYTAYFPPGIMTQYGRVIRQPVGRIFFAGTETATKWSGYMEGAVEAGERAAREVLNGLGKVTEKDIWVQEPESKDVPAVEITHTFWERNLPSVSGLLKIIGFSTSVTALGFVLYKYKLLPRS
In words: DRUGMATRIX: Monoamine Oxidase MAO-A enzyme inhibition (substrate: Kynuramine). Also noted: species or system BTI-TN-5B1-4. To be noted: bti-tn-5b1-4; Not Active = under 50% inhibition at 10 µM.

The nature of data set [4]: DRUGMATRIX: Phosphodiesterase PDE4 enzyme inhibition (substrate: [3H]cAMP + cAMP). Particulars: u-937; Not Active = under 50% inhibition at 10 µM.
In the next data set the target is T3, Caspase-1 (Homo sapiens, UniProt P29466).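 Further: Caspase-1 enzyme inhibition assay with a peptide substrate; in other assays of this panel Not Active means under 50% inhibition at 10 µM.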
T3 sequence (P29466 whole entry): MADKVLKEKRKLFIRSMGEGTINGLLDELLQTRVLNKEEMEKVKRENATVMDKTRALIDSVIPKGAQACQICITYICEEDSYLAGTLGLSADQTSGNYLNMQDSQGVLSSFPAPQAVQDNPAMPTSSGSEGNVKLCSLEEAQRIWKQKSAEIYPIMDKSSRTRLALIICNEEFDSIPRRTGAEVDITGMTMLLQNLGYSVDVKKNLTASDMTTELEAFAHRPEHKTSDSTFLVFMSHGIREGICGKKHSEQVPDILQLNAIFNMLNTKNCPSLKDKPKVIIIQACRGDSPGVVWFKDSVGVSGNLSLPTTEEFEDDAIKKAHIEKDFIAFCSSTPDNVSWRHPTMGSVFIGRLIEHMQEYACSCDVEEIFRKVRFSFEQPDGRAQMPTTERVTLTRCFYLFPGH
Also on record: species or system Escherichia coli.

Data set [5] concerns the target Mitogen-activated protein kinase 3 (Homo sapiens, UniProt P27361). In words: DRUGMATRIX: Protein Serine/Threonine Kinase, ERK1 enzyme inhibition (substrate: Myelin Basic Protein). Also noted: species or system Escherichia coli. Particulars: Not Active = under 50% inhibition at 10 µM.
A further data set deals with Cytochrome P450 2C9 (Homo sapiens, UniProt P11712). Particulars: bti-tn-5b1-4.
Chain of Cytochrome P450 2C9 (P11712 whole entry): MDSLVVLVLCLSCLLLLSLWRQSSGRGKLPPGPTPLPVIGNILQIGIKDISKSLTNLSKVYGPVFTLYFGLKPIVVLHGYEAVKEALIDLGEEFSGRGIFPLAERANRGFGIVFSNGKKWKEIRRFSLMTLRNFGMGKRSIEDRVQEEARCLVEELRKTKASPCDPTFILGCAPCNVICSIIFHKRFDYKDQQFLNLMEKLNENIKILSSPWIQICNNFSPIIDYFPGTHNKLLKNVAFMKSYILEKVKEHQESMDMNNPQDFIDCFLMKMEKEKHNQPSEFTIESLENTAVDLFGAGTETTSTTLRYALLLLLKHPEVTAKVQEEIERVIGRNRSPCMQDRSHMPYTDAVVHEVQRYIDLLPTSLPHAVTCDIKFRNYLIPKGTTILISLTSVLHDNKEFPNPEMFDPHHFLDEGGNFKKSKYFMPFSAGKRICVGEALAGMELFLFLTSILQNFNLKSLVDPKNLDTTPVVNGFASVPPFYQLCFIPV

Chain of Mitogen-activated protein kinase 3 (P27361 whole entry): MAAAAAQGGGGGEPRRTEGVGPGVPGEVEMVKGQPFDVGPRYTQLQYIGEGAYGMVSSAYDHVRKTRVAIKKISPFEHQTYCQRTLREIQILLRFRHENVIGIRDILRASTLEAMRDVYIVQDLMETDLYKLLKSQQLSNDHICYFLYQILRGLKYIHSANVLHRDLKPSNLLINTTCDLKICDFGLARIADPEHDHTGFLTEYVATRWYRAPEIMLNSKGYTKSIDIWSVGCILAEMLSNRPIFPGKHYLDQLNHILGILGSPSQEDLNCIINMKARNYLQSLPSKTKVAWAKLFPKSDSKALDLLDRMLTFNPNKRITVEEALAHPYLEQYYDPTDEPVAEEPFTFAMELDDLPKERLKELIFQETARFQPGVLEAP
Chain of Melanocortin receptor 3 (P41968 whole entry): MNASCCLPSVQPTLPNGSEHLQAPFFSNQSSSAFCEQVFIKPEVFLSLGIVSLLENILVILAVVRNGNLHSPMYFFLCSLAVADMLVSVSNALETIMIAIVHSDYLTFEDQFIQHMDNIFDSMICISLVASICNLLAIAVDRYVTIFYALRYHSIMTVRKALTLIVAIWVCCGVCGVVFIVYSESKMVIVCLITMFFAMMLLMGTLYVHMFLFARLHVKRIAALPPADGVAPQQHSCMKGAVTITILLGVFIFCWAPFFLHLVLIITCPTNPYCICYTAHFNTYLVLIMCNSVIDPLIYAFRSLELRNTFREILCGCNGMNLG

For the compound `O=C/C=C/c1ccccc1`, the IC50 entry (in data set [1]; in data set [2]; on Melanocortin receptor 3; in data set [3]; in data set [4]; at Caspase-1) was “Not Active” each time. For the same compound, the IC50 result (in data set [5]; at Cytochrome P450 2C9) was “Not Active” throughout. Besides, the Ki result (in data set [1]; in data set [4]; at Cytochrome P450 2C9) was “Not Active” throughout.
Consider `Nc1ccc2c3c(cccc13)C(=O)NC2=O`, for which the IC50 result (in data set [1]; in data set [2]; against Melanocortin receptor 3; in data set [3]; in data set [4]; against Caspase-1) was “Not Active” each time. The IC50 entry (in data set [5]; on Cytochrome P450 2C9) was “Not Active” throughout. The Ki result (in data set [1]; in data set [4]; at Cytochrome P450 2C9) was “Not Active” in each case.
Turning to `COc1ccc(C(=O)N2CCCC2=O)cc1`, the IC50 entry (in data set [1]; in data set [2]; against Melanocortin receptor 3; in data set [3]; in data set [4]; against Caspase-1) was “Not Active” in each case. In addition, the IC50 entry (in data set [5]; on Cytochrome P450 2C9) was “Not Active” in each case. Also, the Ki result (in data set [1]; in data set [4]; at Cytochrome P450 2C9) was “Not Active” throughout.
Consider `O=c1cnn([C@@H]2O[C@H](CO)[C@@H](O)[C@H]2O)c(=O)[nH]1` [6-AZAURIDINE], for which the concentration for half-maximal inhibition (IC50) result (in data set [1]; in data set [2]; at Melanocortin receptor 3; in data set [3]; in data set [4]; against Caspase-1) was “Not Active” each time. In addition, the IC50 result (in data set [5]; against Cytochrome P450 2C9) was “Not Active” throughout. Further, the Ki result (in data set [1]; in data set [4]; on Cytochrome P450 2C9) was “Not Active” each time.
In the case of `CC[C@H](C)[C@H]1O[C@]2(C=C[C@@H]1C)C[C@@H]1C[C@@H](C/C=C(\C)[C@@H](O[C@H]3C[C@H](OC)[C@@H](O[C@H]4C[C@H](OC)[C@@H](O)[C@H](C)O4)[C@H](C)O3)[C@@H](C)/C=C/C=C3\CO[C@@H]4[C@H](O)C(C)=C[C@@H](C(=O)O1)[C@]34O)O2.CO[C@H]1C[C@H](O[C@H]2[C@H](C)O[C@@H](O[C@@H]3/C(C)=C/C[C@@H]4C[C@@H](C[C@]5(C=C[C@H](C)[C@@H](C(C)C)O5)O4)OC(=O)[C@@H]4C=C(C)[C@@H](O)[C@H]5OC/C(=C\C=C\[C@@H]3C)[C@]54O)C[C@@H]2OC)O[C@@H](C)[C@@H]1O` [ABAMECTIN], the IC50 entry (in data set [1]; in data set [2]; against Melanocortin receptor 3; in data set [3]; in data set [4]; on Caspase-1) was “Not Active” in each case. Further, the IC50 result (in data set [5]; at Cytochrome P450 2C9) was “Not Active” throughout. In addition, the Ki result (in data set [1]; in data set [4]; on Cytochrome P450 2C9) was “Not Active” in each case.
As for `Cc1nnc2n1-c1ccc(Cl)cc1C(c1ccccc1)=NC2` [ALPRAZOLAM], the IC50 entry (in data set [1]; in data set [2]; against Melanocortin receptor 3; in data set [3]; in data set [4]; at Caspase-1) was “Not Active” throughout. Also, the IC50 entry (in data set [5]; against Cytochrome P450 2C9) was “Not Active” in each case. Moreover, the Ki result (in data set [1]; in data set [4]; at Cytochrome P450 2C9) was “Not Active” in each case.
Turning to `CCC1(CCC(C)C)C(=O)NC(=O)NC1=O` [AMOBARBITAL], the IC50 result (in data set [1]; in data set [2]; on Melanocortin receptor 3; in data set [3]; in data set [4]; against Caspase-1) was “Not Active” each time. Further, the IC50 entry (in data set [5]; against Cytochrome P450 2C9) was “Not Active” in each case. Also, the Ki entry (in data set [1]; in data set [4]; at Cytochrome P450 2C9) was “Not Active” in each case.
In the case of `COc1ccc(C2C(=O)c3ccccc3C2=O)cc1` [ANISINDIONE], the IC50 entry (in data set [1]; in data set [2]; against Melanocortin receptor 3; in data set [3]; in data set [4]; on Caspase-1) was “Not Active” throughout. Further, the IC50 result (in data set [5]; against Cytochrome P450 2C9) was “Not Active” in each case. Moreover, the Ki result (in data set [1]; in data set [4]; at Cytochrome P450 2C9) was “Not Active” throughout.
`COC1=C(OC)C(=O)C(CCCCCCCCCCO)=C(C)C1=O` [IDEBENONE]: the IC50 result (in data set [1]; in data set [2]; against Melanocortin receptor 3; in data set [3]; in data set [4]; against Caspase-1) was “Not Active” throughout. Also, the IC50 result in data set [5] is on record as “Not Active”. The Ki entry in data set [1] and in data set [4] was “Not Active” in each case.
As to `O=C(N/N=C/c1ccc([N+](=O)[O-])o1)c1cc([N+](=O)[O-])cc([N+](=O)[O-])c1O` [NIFURSOL], the IC50 result (in data set [1]; in data set [2]; against Melanocortin receptor 3; in data set [3]; in data set [4]; at Caspase-1) was “Not Active” throughout. Moreover, the IC50 result in data set [5] was “Not Active”. Besides, the Ki entry in data set [1] and in data set [4] was “Not Active” each time.
Take `CC(C)NCC(O)COc1cccc2[nH]ccc12` (stereo unspecified) [PINDOLOL]: the IC50 result (in data set [1]; in data set [2]; against Melanocortin receptor 3; in data set [3]; in data set [4]; against Caspase-1) was “Not Active” throughout. The IC50 entry in data set [5] was “Not Active”. Besides, the Ki result in data set [1] and in data set [4] was “Not Active” in each case.
For the compound `CCCNCC(O)COc1ccccc1C(=O)CCc1ccccc1` (stereo unspecified) [PROPAFENONE], the IC50 result (in data set [1]; in data set [2]; against Melanocortin receptor 3; in data set [3]; in data set [4]; on Caspase-1) was “Not Active” each time. Further, in data set [5], the IC50 result is listed as “Not Active”. In addition, the Ki entry in data set [1] and in data set [4] was “Not Active” each time.
Consider `CC(C)c1cccc(C(C)C)c1O` [PROPOFOL], for which the IC50 result (in data set [1]; in data set [2]; on Melanocortin receptor 3; in data set [3]; in data set [4]; against Caspase-1) was “Not Active” in each case. Besides, the IC50 result in data set [5] is given as “Not Active”. For the same compound, the Ki result in data set [1] and in data set [4] was “Not Active” each time.
On to `C[C@@H]1O[C@@H](O[C@@H]2C=C3CC[C@@H]4[C@H](CC[C@]5(C)[C@@H](c6ccc(=O)oc6)CC[C@]45O)[C@@]3(C)CC2)[C@H](O)[C@H](O)[C@H]1O` [PROSCILLARIDIN], for which the IC50 in data set [1] (read-out: IC50) was 88 nM; in data set [2] it was “Not Active”; against Melanocortin receptor 3, “Not Active”; in data set [3] it was “Not Active”; in data set [4], “Not Active”; against Caspase-1, “Not Active”. The IC50 result in data set [5] is “Not Active”. For the same compound, the Ki entry in data set [4] is listed as “Not Active”.

Broadly, the IC50 is the concentration needed to halve the response being measured.
